Common to all, as to type: in vitro ADME
In series [1] the target is T1, MATE2-K (Homo sapiens, UniProt Q86VL8).
T1 construct: expressed in transfected cells; host or cells: MDCKII or HEK293
Put plainly: MATE2-K uptake transporter inhibition in MDCKII or HEK293 cells. Conditions: substrate Metformin (10 μM). The method, then: (§1) In addition, the inhibition potential against efflux transporters (P-glycoprotein (Pgp) and breast cancer resistance protein (BCRP)) and uptake transporters (MATE1, MATE2-K, OATP1B1, OATP1B3, OAT1, OAT3, and OCT2) was assessed using single transporter over-expressed cell monolayers (MDCK II or HEK293) or inside-out vesicles.
(§2) The potential of Compound A to inhibit Pgp or BCRP was tested for bidirectional transport of the probe substrates in Pgp or BCRP-expressed MDCKII and control monolayers at Compound A concentrations of 0.07-5 μM. Pgp and BCR inhibition were tested in inside-out membrane vesicles prepared from HEK293 overexpressing human Pgp and BCR at concentrations of 0.01-9 μM Compound A in the presence of 4 mM MgATP or MgAMP.

The subject of series [2] is CYP2B6 mRNA. Kind of series: CYP2B6 mRNA induction in cryopreserved human hepatocytes. The settings on record: 0.03-30 μM; for CYP2B6 mRNA Fold induction: human hepatocytes, 48 hours. As to the method:
(§3) The induction potential of Compound A on CYP enzymes was assessed in cryopreserved human hepatocytes from three donors. Following treatment for with Compound A at concentrations of 0.03-30 μM for 48 hours, mRNA levels for CYP1A2, 2B6, 2C8, 2C9, 2C19, and 3A4 were determined by semiquantitative real-time polymerase chain reaction (PCR). Test article concentrations during 24-hour incubation were determined. The potential of Compound A to cause direct and time-dependent inhibition (TDI) of the activities of CYP1A2, 2B6, 2C8, 2C9, 2C19, 2D6, and 3A4 was evaluated in pooled human liver microsomes (HLM) at 0.2-15 μM. Probe substrate concentrations around Km were used for direction inhibition and initial TDI assays. For TDI assay, Compound A was pre-incubated with pooled HLM with and without NADPH for 30 minutes prior to incubation with a single concentration of probe substrate.

In series [3] the target is T2, MATE1 (Homo sapiens, UniProt Q96FL8).
T2 construct: expressed in transfected cells; host or cells: MDCKII or HEK293
T2 sequence (Q96FL8 1-570): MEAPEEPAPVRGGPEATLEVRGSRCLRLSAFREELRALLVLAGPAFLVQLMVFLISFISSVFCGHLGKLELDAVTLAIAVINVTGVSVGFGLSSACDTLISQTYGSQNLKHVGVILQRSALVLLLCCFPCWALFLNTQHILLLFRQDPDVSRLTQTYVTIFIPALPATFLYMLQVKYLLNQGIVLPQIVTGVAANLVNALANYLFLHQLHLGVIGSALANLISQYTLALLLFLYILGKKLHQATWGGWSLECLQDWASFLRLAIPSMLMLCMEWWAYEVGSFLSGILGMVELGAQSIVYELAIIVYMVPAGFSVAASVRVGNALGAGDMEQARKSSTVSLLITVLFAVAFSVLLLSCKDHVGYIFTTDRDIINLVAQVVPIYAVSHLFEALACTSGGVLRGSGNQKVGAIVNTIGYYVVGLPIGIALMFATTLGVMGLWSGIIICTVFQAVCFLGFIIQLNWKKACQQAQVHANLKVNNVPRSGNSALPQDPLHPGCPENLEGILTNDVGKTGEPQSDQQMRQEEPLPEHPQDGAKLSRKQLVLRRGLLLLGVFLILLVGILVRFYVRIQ
Kind of series: MATE1 uptake transporter inhibition in MDCKII or HEK293 cells. As to the method: as §1, §2

Series [4] concerns CYP2C8 mRNA. Kind of series: CYP2C8 mRNA induction in cryopreserved human hepatocytes. Conditions: for CYP2C8 mRNA Fold induction: human hepatocytes.
A short description of series [5]: Metabolite profiling / stability in human liver microsomes. As to the method: (§4) Metabolite profiling was conducted in incubations of Compound A (2 and 10 μM) with HLM (up to 60 min), human hepatocyte suspension (up to 240 min) and human plasma (up to 360 min). In addition, Compound A (2 μM) was incubated with recombinant human CYP enzymes CYP1A2, CYP2A6, CYP2B6, CYP2C8, CYP2C9, CYP2C19, CYP2D6, CYP2E1, CYP3A4 and CYP3A5.
(§5) The DDI potential of Compound A as a victim via CYP mediated pathways was examined in HLM, human hepatocyte suspensions, and human recombinant CYP enzymes.

The target of series [6] is CYP3A5 (Homo sapiens, UniProt P20815). Put plainly: Incubation with recombinant human CYP3A5. The method, then:
as §4, §5

The subject of series [7] is major recombinant CYPs. Put plainly: Incubation with recombinant human CYP enzymes. The settings on record: up to 25 min. The method, then: as §4, §5
For series [8], the target named is T3, CYP2C8 (Homo sapiens, UniProt P10632).
T3 construct: evaluated in pooled human liver microsomes (HLM); from tissue; host or cells: pooled human liver microsomes
Kind of series: Direct and time-dependent CYP2C8 inhibition in pooled human liver microsomes. The settings on record: pooled HLM, substrate Amodiaquine 2 μM. As to the method:
as §3
Background: Liver microsomes are a subcellular fraction often used to study metabolism.

Series [9] addresses T4, CYP1A2 (Homo sapiens, UniProt P05177).
T4 construct: evaluated in pooled human liver microsomes (HLM); from tissue; host or cells: pooled human liver microsomes
Put plainly: Direct and time-dependent CYP1A2 inhibition in pooled human liver microsomes. Conditions: pooled HLM, substrate Phenacetin 50 μM. The method, then: as §3

The subject of series [10] is Caco-2 cell monolayers. Put plainly: Bidirectional permeability in Caco-2 cell monolayers. Conditions: 1% of BSA, 120 min incubation. The method, then: The potential of Compound A to act as an efflux transporter Pgp and BCRP as well as uptake transporter OATP1B1 and 1B3 were assessed in Caco-2 and single transporter over-expressed HEK29 cells, respectively.
The potential of Compound A to act as a substrate for Pgp and BCRP was examined in Caco-2 cells at the concentrations of 0.075, 0.75, 3.75 and 7.5 μM containing 1% of BSA. After 120 min incubation, the bidirectional permeability of Compound A was determined by LC-MS/MS. The involvement of Compound A as a substrate of OATP1B1 and OATP1B3 was assessed in the uptake transporter substrate assays at 4 concentrations (0.1, 0.5, 1 and 5 μM). Compound A in cell lysates was determined by LC-MS/MS.

Series [11] has as its system CYP1A2, 2B6, 2C8, 2C9, 2C19, 2D6, and 3A4. Kind of series: Direct and time-dependent inhibition of all CYPs tested in pooled human liver microsomes. Conditions: HLM. As to the method: as §3
Setting [12] is: read-out: IC50, 30 min Pre-incubation.
[13] abbreviates: read-out: IC50, No Pre-incubation.

In general, IC50 refers to the midpoint of a concentration-inhibition curve. The term EC50 denotes the concentration that produces a half-maximal response. High values mean lower potency in that assay, low ones higher potency in that assay. In general, inhibition refers to the percentage by which the read-out fell short of the control. Read a high inhibition as a response far below the control.

Where two headings read alike, the source gives them in different places. Some results are limits rather than exact numbers.

T4 sequence (P05177 whole entry): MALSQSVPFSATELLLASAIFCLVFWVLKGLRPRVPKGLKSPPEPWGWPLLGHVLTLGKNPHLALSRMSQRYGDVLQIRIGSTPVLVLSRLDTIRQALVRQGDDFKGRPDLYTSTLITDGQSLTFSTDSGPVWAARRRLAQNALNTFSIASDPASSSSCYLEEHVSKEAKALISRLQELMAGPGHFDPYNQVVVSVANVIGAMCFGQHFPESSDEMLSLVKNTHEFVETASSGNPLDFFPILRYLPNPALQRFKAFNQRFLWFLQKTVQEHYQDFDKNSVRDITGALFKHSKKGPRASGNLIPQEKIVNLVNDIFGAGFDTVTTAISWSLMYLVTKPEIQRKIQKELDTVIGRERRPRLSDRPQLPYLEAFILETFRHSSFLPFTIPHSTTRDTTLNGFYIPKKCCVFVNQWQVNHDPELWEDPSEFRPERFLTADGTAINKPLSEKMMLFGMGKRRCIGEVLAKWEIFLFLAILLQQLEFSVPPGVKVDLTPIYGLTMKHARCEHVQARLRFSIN
T3 sequence (P10632 whole entry): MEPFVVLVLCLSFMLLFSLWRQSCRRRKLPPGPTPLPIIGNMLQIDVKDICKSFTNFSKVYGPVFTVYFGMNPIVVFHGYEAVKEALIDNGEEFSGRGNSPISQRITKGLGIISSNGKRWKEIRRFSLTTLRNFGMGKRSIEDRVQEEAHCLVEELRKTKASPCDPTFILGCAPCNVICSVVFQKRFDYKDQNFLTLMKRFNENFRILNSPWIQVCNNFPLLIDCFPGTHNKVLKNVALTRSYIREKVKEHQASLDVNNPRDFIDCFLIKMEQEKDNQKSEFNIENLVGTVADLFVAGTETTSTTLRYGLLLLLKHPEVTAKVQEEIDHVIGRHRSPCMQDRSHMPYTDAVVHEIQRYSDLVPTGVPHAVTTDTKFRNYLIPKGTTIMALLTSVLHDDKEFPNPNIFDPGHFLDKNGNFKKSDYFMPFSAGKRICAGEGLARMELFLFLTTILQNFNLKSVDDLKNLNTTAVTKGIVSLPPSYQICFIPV
T1 sequence (Q86VL8 1-566 isoform Q86VL8-3): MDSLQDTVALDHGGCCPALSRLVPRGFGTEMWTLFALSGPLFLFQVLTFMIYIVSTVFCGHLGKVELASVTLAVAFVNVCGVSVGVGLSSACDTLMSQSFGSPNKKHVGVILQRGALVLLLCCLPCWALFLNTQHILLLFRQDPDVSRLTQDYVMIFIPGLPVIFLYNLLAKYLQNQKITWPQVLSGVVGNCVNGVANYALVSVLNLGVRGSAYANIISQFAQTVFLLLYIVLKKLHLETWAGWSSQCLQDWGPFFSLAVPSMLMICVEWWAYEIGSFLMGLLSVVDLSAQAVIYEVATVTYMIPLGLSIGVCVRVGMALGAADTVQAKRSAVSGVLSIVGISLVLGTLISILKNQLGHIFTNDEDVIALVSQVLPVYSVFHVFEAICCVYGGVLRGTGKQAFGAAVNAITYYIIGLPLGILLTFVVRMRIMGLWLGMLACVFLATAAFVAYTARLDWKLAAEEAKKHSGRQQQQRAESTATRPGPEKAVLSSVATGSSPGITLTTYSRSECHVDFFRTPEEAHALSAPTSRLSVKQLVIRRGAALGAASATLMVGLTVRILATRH
Sequence of CYP3A5 (P20815 whole entry): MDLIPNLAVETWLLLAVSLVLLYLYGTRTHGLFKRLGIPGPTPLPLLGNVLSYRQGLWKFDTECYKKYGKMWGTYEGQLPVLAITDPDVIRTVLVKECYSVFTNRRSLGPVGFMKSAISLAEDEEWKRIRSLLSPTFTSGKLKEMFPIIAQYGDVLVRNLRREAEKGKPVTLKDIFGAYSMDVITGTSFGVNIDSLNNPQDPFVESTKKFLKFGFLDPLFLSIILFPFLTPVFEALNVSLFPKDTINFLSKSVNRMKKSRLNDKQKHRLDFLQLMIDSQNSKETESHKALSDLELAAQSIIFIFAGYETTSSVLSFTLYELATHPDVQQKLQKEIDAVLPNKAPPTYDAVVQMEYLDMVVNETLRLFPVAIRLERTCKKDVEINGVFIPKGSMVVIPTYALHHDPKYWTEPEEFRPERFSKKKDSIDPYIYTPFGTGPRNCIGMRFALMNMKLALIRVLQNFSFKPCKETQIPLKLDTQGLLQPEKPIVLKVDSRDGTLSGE

Regarding `COc1cc(O[C@H]2C(C)(C)[C@H](NC(=O)c3ccc(N4CCC(CN5CCN(c6ccc(C(=O)N[C@H]7CCC(=O)NC7=O)c(F)c6)CC5)CC4)cc3)C2(C)C)ccc1C#N` [Compound A, 4-(4-((1-(4-(((1R,3R)-3-(4-cyano-3-methoxyphenoxy)-2,2,4,4-tetramethylcyclobutyl)carbamoyl)phenyl)piperidin-4-yl)methyl)piperazin-1-yl)-N—((S)-2,6-dioxopiperidin-3-yl)-2-fluorobenzamide], the 50% inhibitory concentration (IC50) in series [1] was > 3.75 µM; in series [3] (MATE1, substrate Metformin (10 μM)), 3.05 µM; in [8] (setting [12]), > 15 µM; in [8] (setting [13]), > 15 µM; in series [9] (setting [12]), > 15 µM; in [9] (setting [13]), > 15 µM. Besides, the “CYP2B6 mRNA Fold induction” value in [2] (Donor 1), in [2] (Donor 2) and in [2] (Donor 3) was <2 Fold each time. Besides, in series [2] (all three donors of human hepatocytes), the “Induction of CYP2B6 mRNA” value was “did not induce”. In series [3] (MATE1 inhibition), this molecule displayed a concentration giving a half-maximal response (EC50) of 3.05 µM. In series [3] (MDCKII or HEK293 cells stably expressing MATE1, probe Metformin (10 μM), at a concentration of 3.75 μM), at 3.75 µM the inhibition was 52%. In addition, the “CYP2C8 mRNA Fold induction” value is reported as <2 Fold in [4] (Donor 1, 0.03-30 μM, 48 hours); <2 Fold in series [4] (Donor 2, 0.03-30 μM, 48 hours); 3.1 Fold in series [4] (Donor 3, maximal, at 0.1 μM). Besides, the “CYP2C8 mRNA induction, % PC” value in [4] (Donor 3, % of positive control response, at 0.1 μM) came to 28 % PC. In addition, the “% Parent at 0 Min, HLM at 60 min” value in [5] (human liver microsomes, 60 min) was 92.6%. For the same molecule, in series [5] (up to 60 min at 2 μM), the “Stability in HLM incubations” value is on record as “relatively stable”. The “Loss of Compound A in CYP3A5” value in series [6] is on record as ≤ 23%. Moreover, the “Stability in major recombinant CYPs” value in series [7] is reported as “relatively stable”. For the same molecule, the “Permeability in Caco-2 cell monolayers” value in series [10] is on record as “low permeability”. The “Direct inhibition, maximal inhibition” value in series [11] (all CYPs, up to 15 µM tested) is on record as ≤ 12%. Also, the “TDI (time-dependent inhibition)” value in [11] (all CYPs, up to 15 µM tested) is on record as ≤ 15%. Further, the “Direct or time-dependent inhibition” value in series [11] (any of the CYP isoforms, 0.2-15 µM) is “no direct or time-dependent inhibition was observed”.

Source of the values: patent US20250009737A1, “COMPOUNDS AND METHODS FOR THE TARGETED DEGRADATION OF ANDROGEN RECEPTOR” (Arvinas Operations, Inc., priority 2023, published 2025).
